“And” between values parts separate entries of the source, which are not always exact repeats. Identical values can stand only once. Blank lines part the entries; values can stand above or below the molecule they belong to. No end group written: not given here.
Legend:
[1] = biological target: T1, recombinant human neprilysin (rhNeprilysin) (Homo sapiens, UniProt P08473); assay: neprilysin inhibition, fluorogenic enzymatic (FRET) assay; assay type: biochemical; settings: for IC50: pure substance, 37 °C
T1 construct: purchased R&D Systems, Inc
Experimental: All samples are assayed in triplicate.

[2] = biological target: Angiotensin Converting Enzymes (ACE); settings: ACE inhibition; cited from earlier work
rats = assay: intestine motility test (activated charcoal transit); assay type: in vivo; settings: for intestinal transit in relation to RS group: product 30 minutes before charcoal, H1, H2 8.5 g/Kg, P+ (LW) 0.8 g/Kg, L 6.5 g/Kg, loperamide 2 mg/Kg p.o., read 20 minutes after charcoal
Experimental: Intestine motility was evaluated in rats as in Example 7. The groups were coincident (n=7) except of the omission of R group and that only P^+ (LW 0.8 g/Kg) was tested. The control group included rats treated with loperamide (Lop) at a dose of 2 mg/Kg, and rats treated with the vehicle (water) and with non-hydrolysed cow milk (L group). Loperamide is an anti-diarrhoeic drug that delays intestinal transit and it acts as a positive control in this experiment.
After 30 minutes of the administration of the products under study (P+, L, Lop, H1, H2, water) intestine transit was determined by administering 1 ml of a suspension at 1 % w/v of activated charcoal (Sigma-Aldrich®) in arabic gum (Acofar®, 5 %).
20 minutes later, animals were sacrificed by exsanguination and small intestine was extracted (from pilor to ileocecal). Small intestine was longitudinally disposed over a clean surface. Intestinal distance of charcoal was measured as well as the total intestine length. Results for each animal were expressed as distance of charcoal in relation to intestine length, in percentage form.
Statistical analysis was performed by PASW®Statistics 18 software. Global comparative analysis between groups was performed with Kruskal-Wallis test and further with the non-parametric U test of Mann-Whitney. It was stablished as meaningful level a p value of p<0.05.

female Wistar rats = assay: castor oil induced acute diarrhoea in rats; assay type: in vivo; settings: p.o. 1 h before castor oil, H1, H2 8.5 g/Kg
Experimental: The effect of the hydrolysates of the invention was tested in a model of induced acute diarrhoea. For this test, female Wistar rats were used (8 weeks old). Animals were provided with 7 weeks by Harlan (Barcelona, Spain) and they rested in the Animal Experimental Service of Facultad de […] de Barcelona (UB) under controlled temperature and humidity conditions with a light:dark cycle of 12 h:12 h with water and food ad libitum. The assay has been conducted under institutional guidelines for animal experimentation established by the Ethical Commitment of Animal Experimentation in the Universidad de Barcelona (CEEA-UB). […] Haematocrit was also determined as basal value before inducing diarrhoea. […] Although the weight was reduced during the assay, the loss was detected in all groups, and it is hypothesized due to the starving period. No differences among groups were detected in the haematocrit. […] The following variables were determined: number of defecations, type (consistency, colour, form, presence or absence of mucus), punctuation (0-4 according to a diarrhoea index), presence or absence of diarrhoea. There were also determined the diarrhoea index (ID), diarrhoea incidence, the percentage of diarrhoeic defecations, as well as the severity of diarrhoeic process. […] The percentage of diarrhoeic defecations (ID≥2) was also determined for each group. […]

[3] = cited from earlier work
[4] = biological target: recombinant human neprilysin (human, UniProt P08473 53-750); assay: cell-based or functional assay
recombinant human neprilysin, sequence (P08473 53-750 limits assumed): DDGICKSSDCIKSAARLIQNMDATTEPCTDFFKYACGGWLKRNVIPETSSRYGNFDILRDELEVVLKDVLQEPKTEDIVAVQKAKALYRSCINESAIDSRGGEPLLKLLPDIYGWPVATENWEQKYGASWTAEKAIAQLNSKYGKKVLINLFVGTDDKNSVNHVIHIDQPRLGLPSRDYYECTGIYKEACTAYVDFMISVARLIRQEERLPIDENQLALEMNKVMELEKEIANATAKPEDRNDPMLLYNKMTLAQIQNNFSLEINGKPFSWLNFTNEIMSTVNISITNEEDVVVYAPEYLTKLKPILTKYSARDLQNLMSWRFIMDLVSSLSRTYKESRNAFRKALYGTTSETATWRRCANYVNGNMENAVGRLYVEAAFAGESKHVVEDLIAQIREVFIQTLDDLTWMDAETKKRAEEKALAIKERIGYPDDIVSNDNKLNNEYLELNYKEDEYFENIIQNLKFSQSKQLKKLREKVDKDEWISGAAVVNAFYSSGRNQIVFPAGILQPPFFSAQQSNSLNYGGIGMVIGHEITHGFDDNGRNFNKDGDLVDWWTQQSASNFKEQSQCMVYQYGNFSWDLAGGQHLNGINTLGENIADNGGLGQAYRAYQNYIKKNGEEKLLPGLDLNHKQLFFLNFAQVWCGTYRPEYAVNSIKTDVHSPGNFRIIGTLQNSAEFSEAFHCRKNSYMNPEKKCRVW

T1 sequence (P08473 whole entry): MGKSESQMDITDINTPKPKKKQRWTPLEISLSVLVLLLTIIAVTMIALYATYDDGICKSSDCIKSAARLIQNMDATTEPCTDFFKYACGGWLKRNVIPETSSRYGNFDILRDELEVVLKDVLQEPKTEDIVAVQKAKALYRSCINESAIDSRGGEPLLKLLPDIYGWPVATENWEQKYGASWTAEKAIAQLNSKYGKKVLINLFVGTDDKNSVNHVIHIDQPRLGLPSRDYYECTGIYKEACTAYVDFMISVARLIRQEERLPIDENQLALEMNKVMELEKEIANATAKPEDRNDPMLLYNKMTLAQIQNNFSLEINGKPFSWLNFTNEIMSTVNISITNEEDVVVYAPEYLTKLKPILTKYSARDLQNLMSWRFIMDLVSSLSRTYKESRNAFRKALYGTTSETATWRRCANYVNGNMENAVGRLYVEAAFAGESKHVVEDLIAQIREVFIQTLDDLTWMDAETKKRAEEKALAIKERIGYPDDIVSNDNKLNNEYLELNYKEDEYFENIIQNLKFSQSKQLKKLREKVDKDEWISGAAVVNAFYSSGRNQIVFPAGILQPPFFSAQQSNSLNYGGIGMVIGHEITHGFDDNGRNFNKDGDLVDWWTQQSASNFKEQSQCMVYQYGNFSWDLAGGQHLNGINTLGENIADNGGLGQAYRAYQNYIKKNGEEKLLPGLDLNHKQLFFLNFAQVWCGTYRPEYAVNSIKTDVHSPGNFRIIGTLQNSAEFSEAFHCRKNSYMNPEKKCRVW

Molecule: IPP
IC50 [2]: 5 to 9 µM

Molecule: CN(C)C(=O)C(CCN1CCC(O)(c2ccc(Cl)cc2)CC1)(c1ccccc1)c1ccccc1 [loperamide]
intestinal transit: distance of charcoal in relation to total small intestine length (D/L) (rats; 2 mg/Kg p.o., 30 minutes before charcoal, p<0.01 vs RS): 37.8 ± 3.49%
inhibition of intestinal transit (rats; 2 mg/Kg p.o., versus RS group, p<0.01): 37%
intestinal transit in relation to RS group (rats): delayed intestinal transit

Molecule: CC(=O)SCC(Cc1ccccc1)C(=O)NCC(=O)OCc1ccccc1 (centres unmarked) [racecadotril]
severity of diarrhoeic process (AUC of the diarrhoea index) (female Wistar rats; LW 0.8 g/Kg, racecadotril 40 mg/Kg, L 6.5 g/Kg, 0-3 h and 0-8 h PI (FIG. 8), versus RD group): milder severity of diarrhoeic process than RD group
percentage of diarrhoeic defecations (ID≥2) in relation to the total of defecations (female Wistar rats; R 40 mg/Kg, 0-3 h and 0-8 h PI (FIG. 9)): lower in both studied period
water solubility [3]: poor water solubility

Molecule: VPP
IC50 [2]: 5 to 9 µM

Other lines, results leading:

inhibition at 1260 µM ([1]; peptide concentration 1.26 x10^-3 M, 40 minutes at 37 °C): 64.8%
inhibition at 126 µM ([1]; peptide concentration 1.26 x10^-4 M, 40 minutes at 37 °C): 13.2%
inhibition at 12.6 µM ([1]; peptide concentration 1.26 x10^-5 M, 40 minutes at 37 °C): 1.49%
inhibition at 315 µM ([1]; peptide concentration 3.15 x10^-4 M, 40 minutes at 37 °C): 29.5%
inhibition at 630 µM ([1]; peptide concentration 6.30 x10^-4 M, 40 minutes at 37 °C): 46.6%
inhibition at 63 µM ([1]; peptide concentration 6.30 x10^-5 M, 40 minutes at 37 °C): 7.37%
inhibition at 90 µM ([1]; peptide concentration 9.00 x10^-5 M, 40 minutes at 37 °C): 9.41%
Molecule: VLGPVRGPFP [SEQ ID NO: 1]

intestinal transit in relation to RS group (rats): does not modify intestinal transit
IC50 [1]: 84.8 µM
IC50 ([1]; dilutions in deionized water): 84.8 µM
Molecule: CC(C)C[C@H](N)C(=O)N[C@@H](Cc1c[nH]c2ccccc12)C(=O)O [LW]

IC50 of neprilysin inhibition (fluorogenic enzymatic assay, FRET substrate Mca-…[Dnp]-OH) [4]: 0.0269 mg/ml and 84.8 µM
Molecule: LW [peptide LW (dipeptide of formula (I) X1W, wherein X1 is leucine)]

IC50 of neprilysin inhibition (fluorogenic enzymatic assay) [4]: 713 µM
Molecule: VLGPVRGPFP [peptide of SEQ ID NO: 1 (VLGPVRGPFP)]

Source: EP3212211B1, “MILK PROTEIN HYDROLYSATE FOR USE IN THE TREATMENT OF DIARRHOEA” (Laboratorios Ordesa, S.l., priority 2014, dated 2016)
